Read-outs that look alike come from different tables or passages of the source.
Experiments:
[1] = test system: Aspergillus niger lipase; assay: Lipase inhibition assay with pNPP substrate; type: biochemical; conditions: for inhibition of lipase activity (in words): 0.5 mmoles/litre to 1.5 mmoles/litre, pNPP as substrate; for inhibition of lipase: 1.5 mmol/litre, para-nitrophenyl palmitate (pNPP) substrate, 37°C; for lipase activity: at about 1.5mmoles/litre
Protocol: Lipase assays were performed in a 96-well, clear, flat-bottomed plate with 200 μl reaction volume. pNPP was used as a substrate with a reaction buffer of 50 mM sodium phosphate, 5 mM sodium taurocholate, and 10% isopropanol at pH 8.0 [8, 9]. Lipase assays was performed in 200 μl reaction volume and substrate conversion was monitored with a Multiskan Go spectrophotometer (Thermo Scientific) at 410 nm. All assays were run at 37°C and reported results are the average of three replicates that were blank subtracted. The Lipase inhibitory activity was expressed as percentage inhibition calculated as: % Inhibition = [(Acontrol − Atest sample)/[…]]*100.
Significant inhibition was obtained at 0.5 mmoles/litre. For all three molecules indicating structural changes begin well below this concentration. According to all binding experiments have been performed in concentration range at 50 μM to 400 μM.

[2] = target: T1, Human Serum Albumin (HSA) (Homo sapiens, UniProt P02768); assay: Fluorescence quenching of HSA (Stern-Volmer and double-logarithmic plots); type: binding; conditions: for blue shift in the emission maximum of HSA: excitation 280nm, from 342 nm, throughout the titration
T1 construct: purchased Sigma-Aldrich
T1 sequence (P02768 25-609): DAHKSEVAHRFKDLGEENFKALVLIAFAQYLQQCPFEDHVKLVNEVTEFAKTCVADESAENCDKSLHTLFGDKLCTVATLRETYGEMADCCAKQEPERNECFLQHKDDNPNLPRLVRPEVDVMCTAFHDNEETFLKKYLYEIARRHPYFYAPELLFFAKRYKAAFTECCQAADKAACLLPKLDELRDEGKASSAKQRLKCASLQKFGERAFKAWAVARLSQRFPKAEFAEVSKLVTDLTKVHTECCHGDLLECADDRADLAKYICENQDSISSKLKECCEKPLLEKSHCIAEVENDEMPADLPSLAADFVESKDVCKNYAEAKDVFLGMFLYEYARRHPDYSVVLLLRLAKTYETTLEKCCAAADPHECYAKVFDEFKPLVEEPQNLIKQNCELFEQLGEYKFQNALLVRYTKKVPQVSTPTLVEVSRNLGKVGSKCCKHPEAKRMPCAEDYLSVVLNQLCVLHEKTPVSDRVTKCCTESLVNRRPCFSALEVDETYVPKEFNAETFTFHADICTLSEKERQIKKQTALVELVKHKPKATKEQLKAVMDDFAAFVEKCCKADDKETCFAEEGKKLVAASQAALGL
Protocol: (§1) Lipase and HSA were dialyzed against KCl- buffer (pH 7) for 24 hrs. Stock solution of lipase was prepared in 10 mM phosphate buffer at pH 7.4 to obtain a particular concentration. […] These samples were incubated at 298.0 K for about 24 hrs.
(§2) Fluorescence spectra were recorded on Hitachi F-4010 spectrofluorometer equipped with circulating water bath to maintain the temperature of the cell. The quartz cell of path length 1.0 cm and band slit of 5.0 nm were used for all experiments. The excitation wavelength was 280 nm for lipase and HSA. Emission spectra were recorded from 300–450 nm for lipase and HSA protein.
(§3) Herein, the fluorescence intensities were corrected for absorption of the exciting light and reabsorption of the emitted light to decrease the inner filter effect according to the following equation [10] (Chi & Liu, 2011): Fcorr=Fobs10^Aex+Aem/2, Where Fcorr and Fobs are corrected and experimentally measured fluorescence intensities, respectively. […] The fluorescence intensity utilized in this paper was the corrected intensity.
(§4) The HSA were excited at 280nm and spectra were taken from 300nm to […].
The plot of F0/F against [linalool] at 298K is given as S3A Fig. The values of ksv and kq could be calculated from the slope of curves. The average lifetime of the fluorophore in the absence of the ligand as 6.38 × 10^−9 s for HSA [23]. […] Ka and ‘n’ were calculated from equation: Log[(F0–F)/F] = logKa + n log[linalool].

[3] = target: T1, Human Serum Albumin (HSA); assay: Far-UV circular dichroism of HSA; conditions: 24 hours at 298.15 K, pH 7.4, native -17.76
Protocol: CD spectra were obtained over wavelength range of 200–250 nm on Jasco-1500 CD Spectrometer equipped with peltier type temperature controller. 0.1cm quartz cell were used to measure far UV CD spectrum. The concentration of protein used was 0.2 mg/ml (lipase) and 0.35 mg/ml (HSA). Each spectrum was scanned thrice and finally average of 3 was used to analyse the results.

[4] = target: T2, HSA (Homo sapiens, UniProt P02768); assay: Intrinsic Trp214 fluorescence quenching of HSA (excitation 280 nm, ligand 50-400 uM, inner-filter corrected), 10 mM phosphate pH 7.4, 298 K; Ka from double-logarithmic plot.; type: binding; design: gene ALB; commercial (Sigma-Aldrich), dialyzed; conditions: read-out: Ka(M^-1) (converted)
T2 sequence (P02768 25-609): as above
Protocol: as §1, §2, §3, §4
The plot of F0/F against [linalool] at 298K is given as S3A Fig. The values of ksv and kq could be calculated from the slope of curves. […] Ka and ‘n’ were calculated from equation: Log[(F0–F)/F] = logKa + n log[linalool].

[5] = target: T2, HSA; assay: UV-Vis absorption spectroscopy of HSA; type: binding; design: purchased Sigma-Aldrich; conditions: HSA 0.4mg/ml, shifted from 278 nm, 298.15 K, pH 7.4
Description: UV-visible absorbance spectra were obtained using JASCO, V-560 spectrophotometer in the wavelength range 240 to 340 nm. The baseline was corrected for each spectrum.

[6] = test system: Aspergillus niger lipase; assay: Fluorescence quenching of lipase (Stern-Volmer and double-logarithmic plots); type: binding; conditions: for binding affinity with Aspergillus niger lipase (order of magnitude): conclusion, unit not given; for ksv (Stern-Volmer constant): pH 7.4, ligand 50-400 μM; for kq (quenching rate constant): pH 7.4, τ0 10^-9 s
Protocol: as §1, §2, §3
(§5) Emission fluorescence spectra were measured in the 300–450 nm interval, at a fixed excitation wavelength of 280 nm. Occurrence of an emission maximum at 344 nm in the fluorescence spectrum of lipase can be attributed to the presence of tryptophan residue of lipase. Even though the intrinsic fluorescence of pancreatic lipase is attributed to three amino acid residues, phenylalanine (Phe), tyrosine (Tyr), and tryptophan (Trp), the fluorescence of Phe and Tyr residues at this wavelength is negligible, so intrinsic fluorescence of the fungal enzyme is mainly due to Trp. […] Several earlier reports have shown similar fluorescence quenching of protein upon interaction with various drug molecules, without any shift in the emission maximum. The observed quenching in the protein fluorescence can be induced by a variety of molecular interactions such as rearrangement of molecules, ground-state complex formation, excited-state reactions, energy transfer and collisional quenching.
In order to gain insight into quenching mechanism involved in linalool-lipase, carvacrol- lipase and thymol- lipase interaction, or to gain further insight into the mechanism of tertiary structure we analysed the fluorescence quenching data using Stern–Volmer equation. […] S1A–S1C Fig and Table 1. gives ksv and kq values of Lipase—lin as 1.73 x 10^4 M^-1 and 1.73 x 10^13 M^-1s^-1, Lipase—car as 2.17 x 10^3 and 2.17 x 10^12, Lipase—thy as 1.76 x 10^4 and 1.76 x 10^13 respectively. […] Binding constant and number of binding sites were determined by plotting log (F0—F)/F versus log [ligand] according to equation: Log[(F0–F)/F=logKa+nlogligand] where Ka and n are binding constants and stoichiometry of association process respectively. Linear relationship is obtained from log(F− F0) / F versus log[ligand].

[7] = target: T3, lipase; assay: Intrinsic Trp fluorescence quenching of A. niger lipase (excitation 280 nm, ligand 50-400 uM, inner-filter corrected), 10 mM phosphate pH 7.4, samples incubated at 298 K for about 24 h; Ka from double-logarithmic plot.; type: binding
T3 construct: commercial (Sigma-Aldrich), dialyzed
Protocol: as §1, §2, §3
as §5, with “quenching. […]” for “quenching.”

| SMILES | inhibition of lipase activity (in words) [1] | inhibition of lipase [1] | lipase activity [1] | Kd [2] [µM] | n (number of binding site) ([2]; HSA) | kq (quenching rate constant) ([2]; HSA, 298K) [M⁻¹ s⁻¹] | ksv (Stern-Volmer quenching constant) ([2]; HSA, 298K, ligand 50-400 μM) [M⁻¹] | blue shift in the emission maximum of HSA [2] [nm] | MRE x 10^3 at 222nm (complex_400 μM) [3] | Kd [4] [µM] | maximum absorption peak position of ligand-HSA complex [5] [nm] | strength of binding to lipase (in words) [6] | binding affinity with Aspergillus niger lipase (order of magnitude) [6] | ksv (Stern-Volmer constant) ([6]; lipase) [M⁻¹] | kq (quenching rate constant) ([6]; lipase) [M⁻¹ s⁻¹] | Ka [7] [M⁻¹] | also measured |
| --- | --- | --- | --- | --- | --- | --- | --- | --- | --- | --- | --- | --- | --- | --- | --- | --- | --- |
| Cc1ccc(C(C)C)cc1O [carvacrol] | markedly inhibited lipase activity | approximately 50% | approximately 50% | ~100 | 1.29 | 2.33e+12 | 2330 | 1 | -24.91 | 45.5 | 278.2 | strong binders | ~10^7 | 2170 | 2.17e+12 | 4.6e+07 | Ka (binding constant) ([2]; HSA, double-logarithmic plot): 22000 M⁻¹; Ka (binding constant) ([6]; lipase, pH 7.4, double-logarithmic plot): 4.66e+07 M⁻¹ |
| C=CC(C)(O)CCC=C(C)C (stereo not shown) [linalool] | markedly inhibited lipase activity | approximately 50% | approximately 50% | ~100 | 1.36 | 3.32e+12 | 3320 | 2 | -23.13 | 29.4 | 278.5 | weak binder | ~10^3 | 17300 | 1.73e+13 | 5300 | association constant / binding affinity with HSA (order of magnitude) ([2]; unit inferred): ~10000 M⁻¹ |
| Cc1ccc(C(C)C)c(O)c1 [thymol] | markedly inhibited lipase activity | approximately 50% | approximately 50% |  |  |  |  |  |  |  | 278.4 | strong binders | ~10^9 | 17600 | 1.76e+13 | 2.6e+09 | kq (quenching rate constant) [2]: 3.21e+13 M⁻¹ s⁻¹; ksv (Stern-Volmer quenching constant) [2]: 32100 M⁻¹ |
